Measured values: US7163689B2, “Intravenous valproate for acute treatment of migraine headache” (priority 1999, dated 2007)
Several values for one entry are separate records, joined by “and”; a condition that tells them apart may be missing. Equal entries are not always repeated.

Assays:
Type in all cases: in vivo, human
[1] = system: patients with moderate to severe migraine headaches of duration of 24 to 96 hrs; test: Pilot study: IV valproate vs IM DHE with metoclopramide for abortive treatment of acute migraine headache (Example 1); conditions: for % Headache Relief: 5 patients per group; for Headache Severity / Nausea/vomiting / Phonophobia / Photophobia: individual patient; for Headache Severity: grade 0-3; for Nausea/vomiting / Phonophobia / Photophobia: presence; for patients who had nausea / patients who had relief of phonophobia / patients who had relief of photophobia / patients with response of headache from moderate or severe to none or mild: of 5 patients
Source text: This Example describes the results of a pilot study using intravenous valproate for abortive treatment of acute migraine headache. • Methods. Patients with established diagnosis of migraine with and without aura were considered for randomization to intravenous (“IV”) valproate (“VPA”) or intramuscular (“IM”) dihydroergotamine (“DHE”) with metoclopramide, also referred to herein as […]®, for patients with moderate to severe migraine headaches of duration of 24 to 96 hrs. Patients received intravenous infusion of 500 mgs of valproate over 30 mins or 1 mg DHE with 10 mgs metoclopramide IM. Headache severity, presence of nausea, phonophobia and photophobia were rated at baseline, 1 hr, 2 hrs, and 4 hrs. Table I and II. There were 5 patients in each group. • Results. Of the 5 patients receiving valproate, 4 of the 5 had response of their headaches from moderate or severe to none or mild at 1 hr, 2 hrs, and 4 hrs. Of the 5 patients receiving DHE, 3 of the 5 patients had headache response to moderate or severe to mild or none at 1 hr, 2 hrs, and 4 hrs. Table III. […] In the DHE group, 2 of 5 had nausea at baseline, and 1 had nausea at 1 hr, 2 hrs, and 4 hrs. Table IVa. […] In the DHE group, 3 of 5 had relief of photophobia at 1 hr, 4 of 5 had relief at 2 hrs and 4 hrs. […] In the DHE group, 2 of 5 had relief of phonophobia at 1 hr, and 3 of 5 had relief of phonophobia at 2 hrs and 4 hrs. Table IVb. • Conclusions. Intravenous valproate is an alternative therapy for abortive treatment of moderate to severe prolonged acute migraine headache. Anti-convulsant mechanisms may be relevant to treatment of headache symptomatology.

[2] = system: patients with moderate to severe migraine headaches of duration of 24 to 96 hrs; test: as above; conditions: individual patient, grade 0-3; 24-h
[3] = system: patients with moderate to severe headaches of 24–72 hours duration; test: Expanded study: IV VPA vs DHE with metoclopramide IM, acute migraine headache (Example 2); conditions: for % Headache Relief: 10 patients per group; for Headache Severity / Nausea/vomiting / Phonophobia / Photophobia: individual patient; for Headache Severity: grade 0-3; for Nausea/vomiting / Phonophobia / Photophobia: presence
Method: This Example describes an expanded study and analysis of the effectiveness of intravenous VPA for the treatment of acute migraine headache of significant duration. Patient data from the pilot study described in Example 1 has been incorporated and further analyzed in addition to new patient data. • Design. […] Patients alternately received intravenous VPA 500 mgs over 15–30 minutes, or dihydroergotamine (“DHE”) 1 mg with metoclopramide 10 mgs intramuscularly (“IM”). Age ranged from 22 to 73 years. Patients rated severity of headache, presence or absence of nausea, photophobia, and phonophobia at 1, 2 and 4 hrs. Table V and Table VI. • Results. In the 10 patients receiving DHE and metoclopramide, 40% had headache relief at 1 hour, 50% at 2 hours, 60% at 4 hours. The percent with nausea at 0, 1, 2, and 4 hours was 60%, 10%, 20%, 30% respectively, photophobia at 0, 1, 2, and 4 hours 100%, 50%, 50%, 40% respectively, phonophobia at 0, 1, 2, and 4 hours 80%, 30%, 50%, 40% respectively. In the 10 patients receiving i.v. VPA, 60% had headache relief at 1 hour, 70% at 2 hours, 70% at 4 hours, the percent with nausea at 0, 1, 2, and 4 hours was 70%, 30% 30%, 20% respectively, photophobia at 0, 1, 2, and 4 hours was 100%, 40%, 40%, 30% respectively, and phonophobia at 0, 1, 2, and 4 hours was 90%, 40%, 40%, 30% respectively. Table VII. • Conclusions. The results of the present study indicate that intravenous VPA is at least as efficacious as DHE for abortive treatment of acute migraine. Accordingly, intravenous VPA offers a treatment option for migraine headache patients who have recently used a triptan or DHE without the risk of drug-drug interaction or cardiovascular complications.

CN1C[C@H](C(=O)N[C@]2(C)O[C@@]3(O)[C@@H]4CCCN4C(=O)[C@H](Cc4ccccc4)N3C2=O)C[C@@H]2c3cccc4[nH]cc(c34)C[C@H]21 [DHE, dihydroergotamine]
4 of 5: patients who had relief of photophobia ([1]; 2 hrs) | patients who had relief of photophobia ([1]; 4 hrs)
1 (2×) and 0 and 2: Headache Severity [2]
10%: % experiencing Nausea ([3]; 1-h) | % experiencing Nausea ([3]; 24-h) | % experiencing Phonophobia ([3]; 24-h)
90%: % Headache Relief ([3]; 24-h)
0: Nausea/vomiting ([1]; 0-h (baseline)) | Phonophobia ([1]; 0-h (baseline)) | Nausea/vomiting ([1]; 1-h) | Phonophobia ([1]; 1-h) | Photophobia ([1]; 1-h) | Nausea/vomiting ([1]; 2-h) | Phonophobia ([1]; 2-h) | Photophobia ([1]; 2-h) | Nausea/vomiting ([1]; 4-h) | Phonophobia ([1]; 4-h) | Photophobia ([1]; 4-h) | Nausea/vomiting ([1]; 24-h) | Phonophobia ([1]; 24-h) | Photophobia ([1]; 24-h) | Nausea/vomiting ([3]; 0-h (baseline)) | Phonophobia ([3]; 0-h (baseline)) | Nausea/vomiting ([3]; 1-h) | Phonophobia ([3]; 1-h) | Photophobia ([3]; 1-h) | Nausea/vomiting ([3]; 2-h) | Phonophobia ([3]; 2-h) | Photophobia ([3]; 2-h) | Nausea/vomiting ([3]; 4-h) | Phonophobia ([3]; 4-h) | Photophobia ([3]; 4-h) | Nausea/vomiting ([3]; 24-h) | Phonophobia ([3]; 24-h)
100%: % experiencing Photophobia ([1]; 0-h (baseline)) | % experiencing Photophobia ([3]; 0-h (baseline))
2 of 5: patients who had relief of phonophobia ([1]; 1 hr) | patients who had nausea ([1]; baseline)
2 (4×) and 3 (6×): Headache Severity ([3]; 0-h (baseline), Depacon IV 500 mg or DHE 1 mg IM + Reglan 10 mg IM)
30%: % experiencing Phonophobia ([3]; 1-h) | % experiencing Nausea ([3]; 4-h)
3 (2×) and 0 (4×) and 2 (3×) and 1: Headache Severity ([3]; 2-h)
80%: % experiencing phonphobia ([1]; 0-h (baseline)) | % experiencing Phonophobia ([3]; 0-h (baseline))
3 and 0 (2×) and 2: Headache Severity ([1]; 2-h)
20%: % experiencing Nausea ([1]; 1-h) | % experiencing Nausea ([3]; 2-h)
1 (6×) and 2 and 0 (3×): Headache Severity ([3]; 24-h)
3 of the 5: patients with response of headache from moderate or severe to none or mild ([1]; 1 hr) | patients with response of headache from moderate or severe to none or mild ([1]; 2 hrs) | patients with response of headache from moderate or severe to none or mild ([1]; 4 hrs)
3 and 1 and 0 (2×) and 2: Headache Severity ([1]; 4-h)
40%: % experiencing Nausea ([1]; 0-h (baseline)) | % experiencing phonphobia ([1]; 1-h) | % experiencing Nausea ([1]; 4-h) | % experiencing Photophobia ([1]; 4-h) | % experiencing phonphobia ([1]; 4-h) | % experiencing Phonophobia ([3]; 4-h) | % experiencing Photophobia ([3]; 4-h) | % Headache Relief ([3]; 1-h)
1: patients who had nausea ([1]; 1 hr) | patients who had nausea ([1]; 2 hrs) | patients who had nausea ([1]; 4 hrs)
60%: % experiencing Photophobia ([1]; 1-h) | % Headache Relief ([1]; 1-h) | % Headache Relief ([1]; 4-h) | % experiencing Nausea ([3]; 0-h (baseline)) | % Headache Relief ([3]; 4-h)
3 (2×) and 1 (2×) and 0 (4×) and 2 (2×): Headache Severity ([3]; 4-h)
3 of 5: patients who had relief of photophobia ([1]; 1 hr) | patients who had relief of phonophobia ([1]; 2 hrs) | patients who had relief of phonophobia ([1]; 4 hrs)
3 (2×) and 0 (4×) and 2 (4×): Headache Severity ([3]; 1-h)
3 and 0 (2×) and 1 and 2: Headache Severity ([1]; 1-h)
2 and 3 (4×): Headache Severity ([1]; 0-h (baseline), Depacon IV 500 mg or DHE 1 mg + Reglan 10 mg)
50%: % experiencing Nausea ([1]; 2-h) | % experiencing Photophobia ([1]; 2-h) | % experiencing phonphobia ([1]; 2-h) | % Headache Relief ([1]; 2-h) | % experiencing Photophobia ([3]; 1-h) | % experiencing Phonophobia ([3]; 2-h) | % experiencing Photophobia ([3]; 2-h) | % Headache Relief ([3]; 2-h)
